As to `Cc1ccc2nc(O)c(O)nc2c1`, the melting point – broadly, the temperature of the solid-liquid transition – is over 300 °C.

In turn, `CCCCN(C)c1nsc(N)c1C#N` came in with a melting point of 87 to 89 °C.

In turn, `COc1ccc(NC(=O)c2ccccc2-c2cccc(OC)c2)cc1` registered a melting point of 107 to 109 °C.

`CCOC(=O)Cn1nc2ccc(OCCCN3CCC(OC(c4ccccc4)c4ccccc4)CC3)nn2c1=O` came in with a melting point of 124 to 125 °C.

Molecule `O=C(O)c1ccc(COCc2csc3nc(C(=O)NCc4cccc(F)c4)[nH]c(=O)c23)cc1` gave a melting point of 256 to 280 °C.

The molecule `COc1ccc(-c2cccc3c2C2(COc4cc5c(cc42)OCCO5)C(=O)N3Cc2ccccn2)cc1` (configuration not stated) displayed a melting point of 205 to 206 °C.

Regarding `COC(=O)c1ccc(OCC(C)C)c([N+](=O)[O-])c1`, the melting point turned out to be 77 °C.

`Fc1ccc(C(c2ccc(F)c(F)c2)c2ccc(F)c(F)c2)cc1F` showed a melting point of 95 to 96 °C.

As to `CN1CCN(c2ncnc3oc(C4=CC=CN(N5CCOCC5)C4)c(-c4ccccc4)c23)CC1`, the melting point lay in the range of 255 to 257 °C.

The molecule `CCOCc1nc2c(N)nc3cc(OCCCCCCNC(C)=O)ccc3c2n1CC(C)(C)NC(C)=O` had a melting point of 190 to 192 °C.

In turn, `O=c1c2c(nc3ccc(-c4nnn[nH]4)cn13)CSC2` gave a melting point of 285 °C.

In turn, `CC(C)(C)NCC(O)c1cccc(C#N)c1F` (configuration not stated) registered a melting point of 88 to 90 °C.

Regarding `COC(=O)C1CCc2c(oc3cccc(Cl)c23)C1` (configuration not stated), the melting point was 99 to 102 °C.

Take `C[C@H](Cn1ncc2ccc3c(c21)C=CCO3)O[Si](C)(C)C(C)(C)C`: the melting point fell in the range of 58 to 59 °C.

Consider `COc1ccc2c(c1)C(c1ccccc1)N(S(C)(=O)=O)N=C2Cc1c(Cl)cncc1Cl` (configuration not stated), for which the melting point fell in the range of 223 to 224 °C.

Consider `CC1=C(C(=O)OC(C)(C)C)C(c2ccc(Cl)cc2)C(C(=O)OC(C)(C)C)=C(C)N1`, for which the melting point is 192 °C.

On to `CCN1CCCC1CNS(=O)(=O)c1ccc(Nc2ccnc3cc(Cl)ccc23)cc1` (configuration not stated), for which the melting point fell in the range of 200 to 202 °C.

On to `CCC(CC)(CCC#N)C(NC(=O)c1ccc(Cl)cc1)NC(=N[N+](=O)[O-])Nc1cccnc1` (configuration not stated), for which the melting point is 100 to 110 °C.

Molecule `CC(C)c1nc(-c2cccc3c2OCO3)cc(-c2ccc(F)cc2)c1CO` registered a melting point of 114 to 115 °C.

Turning to `CN(C)CCCCC(=O)c1ccc2c(c1)Cc1cc(C(=O)CCCCN(C)C)ccc1-2`, the melting point was 124 to 126 °C.

For the molecule `CCc1nc2c(Cl)cc(F)c(-n3c(=O)cc(C(F)(F)F)[nH]c3=O)c2s1`, the melting point was in the range of 178 to 180 °C.

In turn, `CN1CCc2c(c(Br)cc3nc(OCc4ccccc4)c(OCc4ccccc4)nc23)C1` registered a melting point of 147 °C.

With `O=C(O)c1ccc2c(c1)C(=O)CCC2`, the melting point lay in the range of 210 to 215 °C.

For `COc1ccccc1N1CCN(CCn2cnc3sc4c(c3c2=O)CCNC4)CC1`, the melting point was 168 to 170 °C.

`CCc1ccccc1-c1nc(-c2cccc(OC)c2)n[nH]1`: the melting point fell in the range of 72 to 75 °C.

`O=C(/C=C/c1ccc2ccccc2c1)Nc1cc(Cl)ccc1NS(=O)(=O)c1ccccc1` registered a melting point of 220 to 223 °C.

`O=C(NCC(=O)N1c2ccccc2N(Cc2ccccc2)C(=O)[C@H]2CCC[C@H]21)c1ccncc1` (relative stereo) showed a melting point of 196 to 199 °C.

`O=C(O)c1ccc2c(c1)S(=O)c1ccc([N+](=O)[O-])cc1C=C2` (configuration not stated) showed a melting point of 278 to 281 °C.

Take `CCOCc1cc(COc2cc(CCC(=O)O)n(-c3ccccc3)n2)cc(Oc2ncc(C(F)(F)F)cc2Cl)c1`: the melting point lay within 124 to 128 °C.

The molecule `N#CCc1cccc2c(-c3ccc(F)cc3)onc12` returned a melting point of 158 to 160 °C.

`CSC(=N)N(c1ccccc1)c1ccccc1` showed a melting point of 104 to 106 °C.

`COC(=O)Cc1cn(-c2ccccc2)nc1OCc1ccc(OCc2nc(-c3ccccc3)oc2C)c(OC)c1` displayed a melting point of 107 to 108 °C.

Molecule `CC(C)c1ccc2nc3ccc(C(=O)O)cn3c(=O)c2c1` displayed a melting point of 280 to 287 °C.

Consider `CC(=O)Nc1nc(CCc2ccc(CCl)cc2)cs1`, for which the melting point was 145 to 146 °C.

In turn, `Cc1cnc(NN)nc1N` yielded a melting point of 174 to 175 °C.

In turn, `CCc1noc(-c2cc3c(cn2)[nH]c2ccc(N(C)C)cc23)n1` came in with a melting point of 235 to 240 °C.

For the molecule `COC(=O)[C@H](Cc1ccc([N+](=O)[O-])cc1)NC(=O)OC(C)(C)C`, the melting point is 95 to 96 °C.

`CC(=O)OC1CSC(Oc2cccc(-c3ccc(C)cn3)c2)C(OC(C)=O)C1OC(C)=O` (configuration not stated) showed a melting point of 140 °C.

With `Cc1nnc(Br)n1-c1ccc(Cl)cc1C(=O)c1ccccc1`, the melting point fell in the range of 198 to 199 °C.

The molecule `CC(C)C1(C)N=C(c2nc3c(cc2C(=O)O)CCO3)NC1=O` (configuration not stated) gave a melting point of 189 to 192 °C.

The molecule `CCOC(=O)c1ccc(OC(=O)c2ccc(C(=O)Oc3ccc(C(=O)OCC)cc3)cc2)cc1` gave a melting point of 187 to 189 °C.

In turn, `Cc1cc(SC(C)C)c(NC(=O)CCCCSc2nc3cccc(C(F)(F)F)c3o2)c(SC(C)C)n1` registered a melting point of 118 to 120 °C.

For `CCn1nnc(C(C=O)=C(c2ccc(F)cc2)c2ccc(F)cc2)n1`, the melting point is 138 to 139 °C.

The molecule `CN(CC1CCN(c2ccc(OC(F)(F)F)cc2)CC1)c1ccc(OC[C@@]2(C)Cn3cc([N+](=O)[O-])nc3O2)cc1` came in with a melting point of 172 to 175 °C.

With `O=C(NCCCn1ccnc1)Nc1ccc(Cl)cc1`, the melting point is 123 to 125 °C.

The molecule `COc1ccc2c(c1)N(C)C(=S)C2` showed a melting point of 135 to 136 °C.

For the molecule `CC(C)C1=C(C#N)C(c2cccc(N3CCOCC3)c2)c2c[nH]nc2N1` (configuration not stated), the melting point was in the range of 254 to 257 °C.

For the molecule `CC(C)n1nc(-c2cc(C#N)c(C(N)=O)nc2-c2ccccc2)ccc1=O`, the melting point fell in the range of 221 to 223 °C.

The molecule `C=CCn1c(=O)n(CC=C)c(=O)n(-c2cc(N3C(=O)C4=C(CCCC4)C3=O)c(F)cc2Cl)c1=O` registered a melting point of 80 to 85 °C.

`CN(C(=O)c1cc(=O)n(C)c2ccc(C(=O)c3ccc(Cl)cc3)cc12)c1cccc(Cl)c1` came in with a melting point of 184 °C.

`CCc1cc(Oc2ccc([C@H](O)[C@@H](Cc3cccc(OC(F)(F)C(F)F)c3)C(=O)O)cc2)ccc1Cl` (racemic) had a melting point of 75 to 76 °C.

Take `CN(C)CCOc1ccc(-c2n[nH]c3ncccc23)cc1`: the melting point lay within 132 to 134 °C.

Take `CCOC(=O)C1=C(CSC(=N)N)NC(C)=C(C(=O)OC)C1c1cccc([N+](=O)[O-])c1` (single isomer, unassigned; (+)): the melting point lay within 122 to 124 °C.

As for `CCCCCC(=O)O[C@H]1C[C@H](O)C=C2C=C[C@H](C)[C@H](CC[C@@H]3C[C@@H](O)CC(=O)O3)[C@H]21`, the melting point was 138 to 139 °C.

For `Cc1ccc(-c2nnc(N3CCCC(O)C3)nc2-c2ccc(C)cc2)cc1` (configuration not stated), the melting point is 122 to 125 °C.

On to `CCCCCCCCCCc1nc(N(C)C)nc(OC)c1Br`, for which the melting point lay within 45 to 46 °C.

On to `OC(CNc1ccnc2ccccc12)c1ccccc1` (configuration not stated), for which the melting point was 289 to 290 °C.

Take `COP(=O)(CCC(C)(C)c1cc(O)c(C(C)(C)C)cc1O)OC`: the melting point fell in the range of 193 to 195 °C.

The molecule `Cn1c(=O)on(-c2ccccc2)c1=O` registered a melting point of 98 to 99 °C.

`NC(=O)CN1C(=O)COc2cc(F)c(N3C(=O)C4=C(CCCC4)C3=O)cc21` registered a melting point of 283 to 286 °C.

The molecule `C=CC(=O)c1ccc(O)cc1` gave a melting point of 99 to 103 °C.

Regarding `O=C(Nc1n[nH]c(=S)s1)N[C@@H](Cc1c(F)c(F)c(F)c(F)c1F)C(=O)N1CCN(c2ccccn2)CC1`, the melting point lay in the range of 233 to 235 °C.

On to `CSc1ccc(-c2nn(CC3CC3)c(=S)cc2-c2ccc(F)cc2)cc1`, for which the melting point amounted to 136 °C.

`CCOC(=O)NCCS(=O)CC(=O)O` (configuration not stated) yielded a melting point of 93.1 to 94.1 °C.

For the molecule `Cc1ccc(C(=O)NC(C)(C)C)c(Nc2ccc3cn[nH]c3c2)n1`, the melting point was in the range of 107 to 109 °C.

Regarding `COc1ccc(CNc2ncnc(Cl)c2N)cc1`, the melting point was in the range of 187 to 188 °C.

Take `O=C(O)c1ccc(N(CC2CC2)c2cc3c4c(c2)CCCC4CCC3)cc1`: the melting point was in the range of 214 to 216 °C.

As to `CC(=O)Oc1ccc(C(=O)Oc2ccc(C(=O)O)cc2)cc1C12CC3CC(CC(C3)C1)C2`, the melting point lay in the range of 264 to 265 °C.

The molecule `CC12CCC3c4cc(OCC(F)(F)F)c(O)cc4C(=NO)CC3C1CCC2O` (configuration not stated) showed a melting point of 187 to 191 °C.

Regarding `CCCCCC(CC(=O)Nc1c(C(C)C)cccc1C(C)C)c1cccc2c1OCO2` (configuration not stated), the melting point fell in the range of 114 to 115 °C.

In the case of `CCCCc1cc(=O)oc2cc(O)cc(O)c12`, the melting point lay within 236 to 237 °C.

On to `COC(=O)N(c1cc(C)ccc1C#N)C(C)C`, for which the melting point lay within 100 to 101 °C.

Turning to `N#CCC(=O)Nc1ccc(-n2nc(C(F)(F)F)cc2C(F)(F)F)cc1`, the melting point was 140 to 143 °C.

Consider `C#Cc1ccc(NC(=O)CCCC(=O)O)cc1`, for which the melting point lay in the range of 135 to 140 °C.

For `NC(=O)N1C(=O)C(C(=O)c2ccco2)c2ccc(F)cc21` (configuration not stated), the melting point lay within 231 to 235 °C.

In turn, `COc1ccc2c(c1)C(NCc1cc(OC)c(OC)cc1N)CCO2` (configuration not stated) came in with a melting point of 90 to 92 °C.

In the case of `Cc1ccccc1C(=O)Nn1c(=O)c(=O)[nH]c2ccc3ccc([N+](=O)[O-])cc3c21`, the melting point is over 230 °C.

For `COc1ccccc1C1(O)C(O)CCC2CN(Cc3ccccc3)CC21` (configuration not stated), the melting point is 140 °C.

`O=C(O)C(=O)c1cccc(OCc2ccccc2Cl)c1OCc1ccccc1Cl` had a melting point of 116 to 118 °C.

`CCNc1ccc(-c2c(N)nc(N)nc2CC)cc1[N+](=O)[O-]`: the melting point fell in the range of 275 to 276 °C.

Turning to `CCOC(=O)c1c(SC)nc(-c2ccc(F)cc2)n(-c2ccc(SC)cc2)c1=O`, the melting point is 166 to 169 °C.

In turn, `COP(=O)(Cc1cc(Cl)c(O)c(C(C)(C)C)c1)OC` gave a melting point of 107 °C.

Turning to `CCCCC(=NO)C(=O)OCC`, the melting point lay in the range of 43.2 to 46.8 °C.

Molecule `O=[N+]([O-])C=C1NCCN1Cc1cc(Br)no1` came in with a melting point of 202 °C.

In turn, `COc1ccccc1C(=O)Nc1ccc(COc2ccc3c(c2)CCC(CN(C)C)C3)cc1` (configuration not stated) had a melting point of 106 to 108 °C.

The molecule `O[C@@H]1CN(CCc2ccccc2)CC[C@H]1c1ccccc1` (relative stereo) returned a melting point of 115 to 119 °C.

Take `COc1cccc(Nc2ccnc(Nc3ccc(OC)c(OC)c3)n2)c1`: the melting point lay within 135 to 138 °C.

The values above are taken from a melting point compilation (Tetko et al.; mined from patent text by program, amines drawn as free bases though some values may be those of a salt).
